Measurements as given in US5053216A, “Radioactive Jomol, its derivatives, processes for the production of these compounds, their use and product” (priority 1985, dated 1991).

Legend:
[1] = assay type: physicochemical; conditions: acid environment / stomach
[2] = human body; cited from earlier work

Compound | removal of bound radium [1] | rate of metabolism versus ethanol [2]
O=Cc1ccc2c(c1)OCC(=O)N1CCOCCOCCN(CCOCCOCC1)C(=O)CO2 [CE] | instable in the stomach, stable in the rest of the body | 
CO [Methanol] |  | substantially more slowly
